Reference: patent US11425909B2, “Use of tetrazolinones for combating resistant phytopathogenic fungi on fruits” (priority 2016, dated 2022)

Test system: Uncinula necator (UNCINE), Qol-sensitive isolate
Assay: Activity against grape powdery mildew, protective glasshouse test, Qol-sensitive isolate
Assay type: in vivo
Conditions: % infected leaf area on grape plants, inoculated 2 days after treatment, assessed 19 days after inoculation
Experimental: Activity against grape powdery mildew caused by Uncinula necator (UNCINE)
The active compounds were formulated separately. Both compounds were applied on plants at the same concentrations of 100, 25 and 5 ppm. The spray broths were prepared as aqueous solutions based on a 6% EC of compound I according to the present invention and a 5% Aceton/water solution of compound I-213 from prior art (WO2013/092224).
The spray solutions were applied until runoff using an experimental glasshouse spray machine at a water volume equivalent to 1.000 L/ha. Treated plants were placed (together with untreated plants as a reference for infection success) in a glasshouse chamber at approx. 18° C. and 50% rH for two days. Two days after treatment, the plants were split into two groups. They were artificially inoculated using an aqueous conidia suspension of 0.1 to 0.5 E05 conidia/ml. One part was inoculated using a Qol-sensitive isolate, the other part using a Qol-resistant isolate carrying the target mutation G143A. After the artificial inoculation, the plants were placed in a glasshouse chamber at 21° C. and 55% rH for 19 days. The assessment of the infection was done 19 days after the inoculation and reported as % infected leaf area on two leaves which were fully covered by the spray application.

Which “Infection (%) Sens. Uncinula necator” value (5 ppm spray) does the source give for Cc1cccc(-n2nnn(C)c2=O)c1COc1ccn(-c2ccc(Cl)cc2)n1 [compound I, 1-[2-[[1-(4-chlorophenyl)pyrazol-3-yl]oxymethyl]-3-methyl-phenyl]-4-methyl-tetrazol-5-one] here?
Its value is 0.3%.

What about the “Infection (%) Sens. Uncinula necator” value (25 ppm spray) of the same molecule?
The value was 0.4%.

And the “Infection (%) Sens. Uncinula necator” value (100 ppm spray)?
Its value is 0.0%.
